{"source": "patent US4749710A", "about": "“Immunosuppressive agents” (priority 1985, dated 1988)", "key": {"[1]": {"system": "human mixed leukocyte-tumor cultures", "assay": "Total viable cells recovered from human mixed leukocyte-tumor cultures", "assay_type": "cell-based", "details": "Table IV", "method": "Human cytotoxic T-lymphocytes were generated in mixed leukocyte-tumor cultures by known methods. Specifically, blood from normal volunteer donors was drawn into heparinized syringes, diluted 1:1 with calcium-magnesium free Hanks' balanced salt solution (Ca-Mg free HBSS), and layered over lymphocyte separation medium (Litton Bionetics, Kensington, MD). After centrifugation at 500xg for 20-30 min at room temperature, peripheral blood mononuclear cells were harvested from the interface. The peripheral blood mononuclear leukocytes were centrifuged and resuspended in Ca-Mg free HBSS and were subsequently separated from platelets by centrifugation at 500xg through a solution of 20% sucrose and 1% human AB serum in Ca-Mg free HBSS. The cells were washed once and finally resuspended in tissue culture medium. […] Cells to be used as stimulator cells in mixed leukocyte-tumor cultures were irradiated with 10,000 rads of gamma irradiation to preclude proliferation in culture. Mixed leukocyte-tumor cell cultures were established in 16 mm tissue culture wells at a final volume of 1.5 ml per well containing 2×10^6 peripheral blood mononuclear leukocytes and 5×10^4 irradiation-inactivated stimulator cells. […]"}, "[2]": {"system": "human cytotoxic T-lymphocyte responses", "assay": "Inhibition of human CTL responses (mixed leukocyte-tumor cultures, HT-144 melanoma, ^51 Cr release)", "assay_type": "cell-based", "details": "for inhibition at 10 µM / inhibition at 1 µM / inhibition at 0.1 µM: Homo sapiens, T-lymphocyte, read-out: Inhibition of CTL activity (%); for inhibition at 10 µM / inhibition at 1 µM / inhibition at 0.1 µM / CTL activity (% specific ^51 Cr release): 0.1% ethanol", "outline": "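Effector CTLs came from 6-day mixed leukocyte–tumor cultures of donor PBMC with irradiated stimulator cells plus 1×10^-5 M hydrocortisone. Effectors were added to adhered ^51Cr-labelled target cells overnight at 37 °C; specific ^51Cr release gave percent inhibition, mean±SEM of triplicates.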"}, "[3]": {"details": "Test 1, donor I, 1 × 10^-5 molar, effector to target 6:1"}, "[4]": {"details": "Test 1, donor I, 1 × 10^-6 molar, effector to target 6:1"}, "[5]": {"details": "Test 2, donor II, 1 × 10^-6 molar, effector to target 6:1"}, "[6]": {"details": "Test 2, donor II, 1 × 10^-7 molar, effector to target 6:1"}, "[7]": {"details": "Test 1, donor I, 1 × 10^-7 molar, effector to target 6:1"}, "[8]": {"details": "Test 2, donor III, 1 × 10^-6 molar, effector to target 32:1"}, "[9]": {"details": "Test 2, donor III, 1 × 10^-7 molar, effector to target 32:1"}, "[10]": {"details": "Test 3, donor IV, 1 × 10^-6 molar, effector to target 24:1"}, "[11]": {"details": "Test 3, donor IV, 1 × 10^-7 molar, effector to target 24:1"}}, "note": "Like-named read-outs stand apart in the source and are kept apart here.", "data": [{"compound": "C=C1/C(=C\\C=C2/CCC[C@]3(C)[C@@H]([C@H](C)C[C@H](O)CC(C)(C)O)CC[C@@H]23)C[C@@H](O)C[C@@H]1O", "note": "[1α,23S,25-(OH)3 --D3, 1α,23S,25-Trihydroxycholecalciferol]", "values": [{"measurement": "toxicity at concentrations suppressing human CTL generation (in words)", "setting": "[1]", "value": "non-toxic"}, {"measurement": "inhibition at 10 µM", "setting": "[2]; [3]", "value": 95, "unit": "%"}, {"measurement": "inhibition at 1 µM", "setting": "[2]; [4]", "value": 72, "unit": "%"}, {"measurement": "inhibition at 1 µM", "setting": "[2]; [5]", "value": 62, "unit": "%"}, {"measurement": "inhibition at 0.1 µM", "setting": "[2]; [6]", "value": 73, "unit": "%"}, {"measurement": "suppression of generation of human cytotoxic T-lymphocytes (in words)", "setting": "[2]; Table IV", "value": "suppressed the generation of human cytotoxic T-lymphocytes"}, {"measurement": "CTL activity (% specific ^51 Cr release)", "setting": "[2]; [3]", "value": "2 ± 3", "unit": "% specific ^51 Cr release"}, {"measurement": "CTL activity (% specific ^51 Cr release)", "setting": "[2]; [4]", "value": "12 ± 3", "unit": "% specific ^51 Cr release"}, {"measurement": "CTL activity (% specific ^51 Cr release)", "setting": "[2]; [5]", "value": "14 ± 7", "unit": "% specific ^51 Cr release"}, {"measurement": "CTL activity (% specific ^51 Cr release)", "setting": "[2]; [6]", "value": "10 ± 2", "unit": "% specific ^51 Cr release"}]}, {"compound": "C=C1/C(=C\\C=C2/CCC[C@]3(C)[C@@H]([C@H](C)/C=C/[C@H](C)[C@](C)(O)CO)CC[C@@H]23)C[C@@H](O)C[C@@H]1O", "note": "[1α,25S,26-(OH)3 --D2, 1α,25S,26-Trihydroxyergocalciferol]", "values": [{"measurement": "inhibition at 1 µM", "setting": "[2]; [4]", "value": 54, "unit": "%"}, {"measurement": "inhibition at 0.1 µM", "setting": "[2]; [7]", "value": 76, "unit": "%"}, {"measurement": "inhibition at 1 µM", "setting": "[2]; [8]", "value": 100, "unit": "%"}, {"measurement": "inhibition at 0.1 µM", "setting": "[2]; [9]", "value": 87, "unit": "%"}, {"measurement": "inhibition at 1 µM", "setting": "[2]; [10]", "value": 82, "unit": "%"}, {"measurement": "inhibition at 0.1 µM", "setting": "[2]; [11]", "value": 40, "unit": "%"}, {"measurement": "CTL activity (% specific ^51 Cr release)", "setting": "[2]; [4]", "value": "17 ± 4", "unit": "% specific ^51 Cr release"}, {"measurement": "CTL activity (% specific ^51 Cr release)", "setting": "[2]; [7]", "value": "9 ± 2", "unit": "% specific ^51 Cr release"}, {"measurement": "CTL activity (% specific ^51 Cr release)", "setting": "[2]; [8]", "value": "-4 ± 2", "unit": "% specific ^51 Cr release"}, {"measurement": "CTL activity (% specific ^51 Cr release)", "setting": "[2]; [9]", "value": "7 ± 2", "unit": "% specific ^51 Cr release"}, {"measurement": "CTL activity (% specific ^51 Cr release)", "setting": "[2]; [10]", "value": "10 ± 2", "unit": "% specific ^51 Cr release"}, {"measurement": "CTL activity (% specific ^51 Cr release)", "setting": "[2]; [11]", "value": "34 ± 10", "unit": "% specific ^51 Cr release"}]}, {"compound": "C=C1/C(=C\\C=C2/CCC[C@]3(C)[C@@H]([C@H](C)C=CC[C@](C)(O)CO)CC[C@@H]23)C[C@@H](O)C[C@@H]1O", "note": "[1α,25S,26-(OH)3 --Δ^22 -D3, 1α,25S,26-Trihydroxy-Δ^22-cholecalciferol]", "values": [{"measurement": "inhibition at 10 µM", "setting": "[2]; [3]", "value": 63, "unit": "%"}, {"measurement": "inhibition at 1 µM", "setting": "[2]; [4]", "value": 70, "unit": "%"}, {"measurement": "inhibition at 1 µM", "setting": "[2]; [5]", "value": 49, "unit": "%"}, {"measurement": "inhibition at 0.1 µM", "setting": "[2]; [6]", "value": 97, "unit": "%"}, {"measurement": "CTL activity (% specific ^51 Cr release)", "setting": "[2]; [3]", "value": "16 ± 4", "unit": "% specific ^51 Cr release"}, {"measurement": "CTL activity (% specific ^51 Cr release)", "setting": "[2]; [4]", "value": "13 ± 8", "unit": "% specific ^51 Cr release"}, {"measurement": "CTL activity (% specific ^51 Cr release)", "setting": "[2]; [5]", "value": "19 ± 4", "unit": "% specific ^51 Cr release"}, {"measurement": "CTL activity (% specific ^51 Cr release)", "setting": "[2]; [6]", "value": "1 ± 4", "unit": "% specific ^51 Cr release"}]}]}
